This is an account of results in patent US4789681A, “Cytoprotective guanidine derivatives useful in ischemic diseases” (Italfarmaco S.p.A., priority 1985, dated 1988).

Experiment [1] concerns rat (cerebral ischemia). Nature of the experiment: In vivo activity in the rat: cerebral ischemia, EEG recovery. The following applies: 3 mg/kg i.v., 10' before test. As to the method: The model described by Kramer (Kramer W., Tuynmann J. A.; Brain Research 6, 686 (1967)) has been used.
Two electrodes for the bipolar recording of EEG (occipito-cervical and cerebellar area) were applied to rats, anaesthetized with N2 O (70%) and O2 (30%), after i.v. tubocurarine treatment. Ischemia was induced by increasing the intracranial pressure in cisterna magna with artificial C.S.F. and for the duration of 1 minute. EEG was recorded 3' before ischemia, during the first 6 minutes of the recirculation and up to 30' after ischemia. The time for a complete EEG recovering was measured.
The compounds were administered i.v. 10' before test.

The test system of experiment [2] is rat (cardiac ischemia). Nature of the experiment: In vivo activity in the rat: cardiac ischemia and reperfusion by ligation of the left coronary artery. The note with it: iv, 3 mg/kg, 10' to 30' before ligation.
Source text: It has been used a cardiac ischemia and reperfusion model, on the anaesthetized rat, by ligation of the left coronary artery as described by C. […] In said model, after the ischemic state induced by the coronary ligation, the reperfusion of the cardiac tissue follows the release of the ligation itself. In said situation tachycardias, extrasystoles ventricular fibrillations are observed, followed, in most cases, by the animal's death.
This applies in both situation: hypoxia and reperfusion.

In experiment [1], `COC(=O)[C@H](N)c1ccc(NC2=NCCN2)cc1` (single isomer, unassigned) [10a(R), Methyl (R) or (S) 2-amino-2-(4'-imidazolinyl-amino-phenilacetate] yielded an EEG recovery time of 62 ± 8 s.

As for `CN=C(N)NCCC[C@@H](N)C(=O)OC` [2b(R), (R)-N^G -methyl-arginine methylester], in experiment [2], the “% effects (with respect to controls in the same situation) on death-rate” value was determined as 10%, the “% effects (with respect to controls in the same situation) on fibrillations” value turned out to be 50% and the “% effects (with respect to controls in the same situation) on tachycardia V.” value came out at 60%.

On to `COC(=O)[C@H](N)CCNNC(=N)N` [4a(R), methyl-(R)-2-amino-4-guanidylamino-butyrrate], for which the EEG recovery time in experiment [1] came to 58 ± 7 s.

On to `COC(=O)[C@H](N)[C@H]1CC[C@@H](NC(=N)N)CC1` [7a(R), Methyl (R) (1',4' cis or trans)-2-amino-2-(4'-guanidinocyclohexyl)-acetate], for which the EEG recovery time in experiment [1] came out at 49 ± 6 s.

Compound `COC(=O)[C@@H](N)[C@H]1CC[C@@H](NC(=N)N)CC1` [7a(S), Methyl (S) (1',4' cis or trans)-2-amino-2-(4'-guanidinocyclohexyl)-acetate] gave an EEG recovery time in experiment [1] of 43 ± 5 s.

In the case of `COC(=O)[C@H](N)CCCNC(=N)N` [D.A.M., Darginine methylester, reference compound], in experiment [1], the EEG recovery time turned out to be 45 ± 6 s.

In experiment [1], `COC(=O)[C@@H](N)CCCNC(=N)N` [L.A.M., Larginine methylester, reference compound] registered an EEG recovery time of 61 ± 8 s.
